{"source": "patent US20120115801A1", "about": "“METHOD FOR OBTAINING A STABLE DISPERSION OF BENZOYL PEROXIDE” (Dow Pharmaceutical Sciences, Inc., priority 2008, published 2012)", "key": {"[1]": {"assay": "benzoyl peroxide wettability study", "type": "physicochemical", "details": "1.5 g powder, agitated as in Example 1", "description": "A benzoyl peroxide wettability study was conducted as follows. 1.5 grams of a hydrous benzoyl peroxide powder was spread on the surface of each of three test fluids contained in glass beakers having about a 5 cm diameter, containing either 30 ml of purified water (Sample A), 30 ml of a fluid composed of 5% propylene glycol and 95% purified water (Sample B), or 30 ml of a fluid composed of 50% propylene glycol and 50% purified water (Sample C). At the bottom of each beaker was a 12 mm×8 mm magnetic stir bar. Each of the fluids, with the benzoyl peroxide powder on the surface, was stirred at 1200 rpm. After 5 and 10 minutes of stirring, the samples were visually inspected for the degree of wetting of the benzoyl peroxide. Good wetting was evidenced by visual determination of little or no agglomeration and/or crusting. It was determined that the wetting of the benzoyl peroxide in Sample A was poor, with little or no visual evidence of wetting. The wetting of the benzoyl peroxide in Sample B was determined to be good, with visual evidence of wetting of a significant portion of the benzoyl peroxide powder. The wetting of the benzoyl peroxide in Sample C was determined to be very good, with visual evidence of wetting of the majority of the benzoyl peroxide powder.\n(§1) The wetting study of Example 1 was repeated utilizing 1.5 grams of benzoyl peroxide powder and 30 ml of a fluid composed of 7.5% ethanol and 92.5% water. The fluid with the benzoyl peroxide powder was agitated as described in Example 1. The wetting of the benzoyl peroxide in the fluid was determined to be very good, with visual evidence of wetting of the majority, about 90%, of the benzoyl peroxide powder.\nas §1, with “20% polyethylene glycol (PEG 200)” for “7.5% ethanol”, “80%” for “92.5%”"}, "[2]": {"assay": "visual inspection of the benzoyl peroxide suspension and wet-milling (Gaulin Mill) to a micro-suspension", "details": "for stability of micro-suspension after wet-milling: Gaulin Mill, no surfactants", "description": "A suspension was prepared containing 33.2% w/w hydrous benzoyl peroxide utilizing a dispersing fluid containing 34.0% w/w propylene glycol and 66% w/w water. Into a 200 gallon stainless steel tank, 175 kg of purified water and 90 kg of propylene glycol were combined. The combination was agitated with a propeller mixer to form a mixture. While mixing, 132 kg of hydrous benzoyl peroxide. (74.5% benzoyl peroxide) powder was added. Mixing continued at 1024 rpm for about 20 minutes to wet and disperse the benzoyl peroxide powder and to obtain a benzoyl peroxide suspension.\nThe suspension was passed through a Gaulin Mill for micronization using a wet-milling method. […] The propylene glycol content was diluted upon incorporation of benzoyl peroxide suspension into the final topical dosage form to make the 6.26% benzoyl peroxide gel.\nA suspension was prepared containing 24.8% w/w hydrous benzoyl peroxide utilizing a dispersing fluid containing 9.4% w/w propylene glycol and 90.6% w/w water. Into a stainless steel tank, 36 kg of purified water and 3.75 kg of propylene glycol were combined. The combination was agitated with a propeller mixer to form a mixture. While mixing, 13.12 kg of hydrous benzoyl peroxide (74.5% benzoyl peroxide) was added. Mixing continued at 1450 rpm for about 10 minutes to wet and disperse the benzoyl peroxide powder and to obtain a benzoyl peroxide suspension.\nThis suspension was transferred to a Gaulin Mill for micronization using a wet-milling method.\nA suspension was prepared containing 24.7% benzoyl peroxide (hydrous) utilizing a dispersing fluid containing 47.6% w/w propylene glycol and 52.4% w/w water. Into a stainless steel tank, 27.5 kg of purified water and 25 kg of propylene glycol were combined. The combination was agitated with a propeller mixer to form a mixture. While mixing, 17.19 kg of hydrous benzoyl peroxide (74.5% benzoyl peroxide) was added. Mixing continued at 858 rpm for about 1 hour to wet and disperse the benzoyl peroxide powder and to obtain a benzoyl peroxide suspension.\nThis suspension was passed through a Gaulin Mill for micronization using a wet-milling method. […] The propylene glycol content was diluted upon combining the benzoyl peroxide suspension with the clindamycin solution to form the final pharmaceutical product."}, "[3]": {"details": "30 ml fluid of 7.5% ethanol and 92.5% water"}, "[4]": {"details": "30 ml fluid of 20% polyethylene glycol (PEG 200) and 80% water"}}}
{"molecule": "O=C(OOC(=O)c1ccccc1)c1ccccc1", "note": "[benzoyl peroxide]", "values": [{"measurement": "portion of the benzoyl peroxide powder wetted (visual evidence)", "setting": "[1]; [3]", "result": "about 90%"}, {"measurement": "wetting of the benzoyl peroxide in the fluid (visual)", "setting": "[1]; [3]", "result": "very good"}, {"measurement": "portion of the benzoyl peroxide powder wetted (visual evidence)", "setting": "[1]; [4]", "result": "about 90%"}, {"measurement": "wetting of the benzoyl peroxide in the fluid (visual)", "setting": "[1]; [4]", "result": "very good"}, {"measurement": "stability of micro-suspension after wet-milling", "setting": "[2]; Example 2: 33.2% w/w hydrous benzoyl peroxide in 34.0% w/w propylene glycol / 66% w/w water", "result": "stable"}, {"measurement": "appearance of suspension upon visual inspection", "setting": "[2]; Example 2: 33.2% w/w hydrous benzoyl peroxide in 34.0% w/w propylene glycol / 66% w/w water, mixed 1024 rpm about 20 minutes", "result": "smooth and free of lumps"}, {"measurement": "stability of micro-suspension after wet-milling", "setting": "[2]; Example 3: 24.8% w/w hydrous benzoyl peroxide in 9.4% w/w propylene glycol / 90.6% w/w water", "result": "stable"}, {"measurement": "appearance of suspension upon visual inspection", "setting": "[2]; Example 3: 24.8% w/w hydrous benzoyl peroxide in 9.4% w/w propylene glycol / 90.6% w/w water, mixed 1450 rpm about 10 minutes", "result": "smooth and free of lumps"}, {"measurement": "stability of micro-suspension after wet-milling", "setting": "[2]; Example 4: 24.7% benzoyl peroxide (hydrous) in 47.6% w/w propylene glycol / 52.4% w/w water", "result": "stable"}, {"measurement": "appearance of suspension upon visual observation", "setting": "[2]; Example 4: 24.7% benzoyl peroxide (hydrous) in 47.6% w/w propylene glycol / 52.4% w/w water, mixed 858 rpm about 1 hour", "result": "smooth and free of lumps"}]}
